Values joined by “and” are separate entries in the source; they are usually repeats but may differ in a detail not shown here. Identical values can stand only once. Like-named read-outs stand apart in the source and are kept apart here.
Assays:
HIV-1 protease [1] = biological target: T1, HIV-1 protease (Human immunodeficiency virus type 1 group M subtype B, UniProt P04585); assay: biochemical
How it was run: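 Biotinylated, FITC-labelled peptide substrate cleaved in 0.1 M sodium acetate pH 5.5, 1.0 M NaCl, 0.05% NP-40, room temperature. Filtered labelled product read by fluorescence; nonlinear least-squares fit.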

HIV-1 protease [2] = biological target: T1, HIV-1 protease; assay: biochemical; conditions: for inhibition at 0.123 µM / inhibition at 0.37 µM / inhibition at 1.1 µM / inhibition at 3.3 µM / inhibition at 10 µM / inhibition at 30 µM: read-out: Protease % Inhib; for PROTEASE % INHIB.: Table II, enzyme HIV-1
How it was run: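 Percent inhibition came from fluorescence of FITC-tagged cleavage product, separated by filtration from uncleaved substrate captured on streptavidin-coated beads. The enzyme (10 μl of 0.1 μM) and compound acted on a biotin/FITC dual-labelled peptide for one hour at room temperature in the dark. The reaction ran in 0.1 M sodium acetate, pH 5.5, with 1.0 M NaCl and 0.05% NP-40.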

[3] = Table I, read-out: HIV Protease FITC Assay Ki
[4] = Table II, enzyme HIV-1, read-out: FITC KI

## O=c1oc2c(c(O)c1C(c1cccc(NS(=O)(=O)c3ccccn3)c1)C1CC1)CCCCCC2 (stereo not shown) [Example 239]
HIV-1 protease [1]; [3]
  Ki: 1.44 nM and 0.86 nM
HIV-1 protease [2]; Table I, Dose 0.123 μM
  inhibition at 0.123 µM: 83.6%
HIV-1 protease [2]; Table I, Dose 0.370 μM
  inhibition at 0.37 µM: 96.6%
HIV-1 protease [2]; Table I, Dose 1.100 μM
  inhibition at 1.1 µM: 98.4%
HIV-1 protease [2]; Table I, Dose 3.300 μM
  inhibition at 3.3 µM: 99.5%
HIV-1 protease [2]; Table I, Dose 10.000 μM
  inhibition at 10 µM: 103%
HIV-1 protease [2]; Table I, Dose 30.000 μM
  inhibition at 30 µM: 108%

## CCCC1(CCc2ccccc2)CC(O)=C(C(c2cccc(NS(=O)(=O)c3ccc(C#N)cn3)c2)C(C)(C)C)C(=O)O1 (stereo not shown) [Example 251, 5-Cyano-N-[3-(1-[5,6-dihydro-4-hydoxy-2-oxo-6-(2-phenethyl)-6-propyl-2H-pyran-3-yl]-2,2-dimethylpropyl)phenyl]-2-pyridinesulfonamide]
HIV-1 protease [1]; read-out: HIV Protease FITC Assay Ki
  Ki: 1.9 nM
HIV-1 protease [2]
  inhibition at 0.123 µM: 70.8%
  inhibition at 0.37 µM: 90.6%
  inhibition at 1.1 µM: 97.7%
  inhibition at 3.3 µM: 94.5%
  inhibition at 10 µM: 94.2%
  inhibition at 30 µM: 93.2%

## CCCC1(CCc2ccc(F)cc2)CC(O)=C(C(c2cccc(NS(=O)(=O)c3cn(C)cn3)c2)C(C)(C)C)C(=O)O1 (stereo not shown) [Example 252, N-[3-{1-(4-Hydroxy-5,6-dihydro-2-oxo-6-(2-(4-fluorophenyl)ethyl)-6-propyl-2H-pyran-3-yl)-2,2-dimethylpropyl}phenyl]-1-methyl-1H-imidazole-4-sulfonamide]
HIV-1 protease [1]; [3]
  Ki: 1.6 nM
HIV-1 protease [2]; Table I, Dose 0.123 μM
  inhibition at 0.123 µM: 70%
HIV-1 protease [2]; Table I, Dose 0.370 μM
  inhibition at 0.37 µM: 85%
HIV-1 protease [2]; Table I, Dose 1.100 μM
  inhibition at 1.1 µM: 89.7%
HIV-1 protease [2]; Table I, Dose 3.300 μM
  inhibition at 3.3 µM: 101%
HIV-1 protease [2]; Table I, Dose 10.000 μM
  inhibition at 10 µM: 96.2%
HIV-1 protease [2]; Table I, Dose 30.000 μM
  inhibition at 30 µM: 91.4%

## Cn1cnc(S(=O)(=O)Nc2cccc(C(C3=C(O)CC(CCC4CC4)(CCC4CC4)OC3=O)C(C)(C)C)c2)c1 (stereo not shown) [Example 264, N-[3-(1-[6,6-Bis-(2-cyclopropyl-ethyl)-5,6-dihydro-4-hydroxy-2-oxo-2H-pyran-3-yl]-2,2-dimethyl-propyl)phenyl]-1-methyl-1H-imidazole-4-sulfonamide]
HIV-1 protease [1]; [3]
  Ki: 3.7 nM
HIV-1 protease [2]; Table I, Dose 0.123 μM
  inhibition at 0.123 µM: 67.2%
HIV-1 protease [2]; Table I, Dose 0.370 μM
  inhibition at 0.37 µM: 75%
HIV-1 protease [2]; Table I, Dose 1.100 μM
  inhibition at 1.1 µM: 67.7%
HIV-1 protease [2]; Table I, Dose 3.300 μM
  inhibition at 3.3 µM: 57.6%
HIV-1 protease [2]; Table I, Dose 10.000 μM
  inhibition at 10 µM: 53.7%
HIV-1 protease [2]; Table I, Dose 30.000 μM
  inhibition at 30 µM: 64.6%

## CC(C)(C)C(C1=C(O)CC(CCC2CC2)(CCC2CC2)OC1=O)c1cccc(NS(=O)(=O)c2ccc(C#N)cn2)c1 (stereo not shown) [Example 265, N-[3-(1-[6,6-Bis-(2-cyclopropyl-ethyl)-5,6-dihydro-4-hydroxy-2-oxo-2H-pyran-3-yl]-2,2-dimethyl-propyl)phenyl]-5-cyano-2-pyridinesulfonamide]
HIV-1 protease [1]; [3]
  Ki: 1 nM
HIV-1 protease [2]; Table I, Dose 0.123 μM
  inhibition at 0.123 µM: 33.2%
HIV-1 protease [2]; Table I, Dose 0.370 μM
  inhibition at 0.37 µM: 56.3%
HIV-1 protease [2]; Table I, Dose 1.100 μM
  inhibition at 1.1 µM: 57.8%
HIV-1 protease [2]; Table I, Dose 3.300 μM
  inhibition at 3.3 µM: 63.7%
HIV-1 protease [2]; Table I, Dose 10.000 μM
  inhibition at 10 µM: 80.3%
HIV-1 protease [2]; Table I, Dose 30.000 μM
  inhibition at 30 µM: 85.6%

## CCCC1(CCc2ccccc2)CC(O)=C(C(c2cccc(NS(=O)(=O)c3ccc(C(F)(F)F)cn3)c2)C(C)(C)C)C(=O)O1 (stereo not shown) [Example 293, 5-Trifluoromethyl-N-[3-[1-[5,6-dihydro-4-hydroxy-2-oxo-6-(2-phenethyl)-6-n-propyl-2H-pyran-3-yl]-2,2-dimethylpropyl]-phenyl]-2-pyridinesulfonamide]
HIV-1 protease [1]; [4]
  Ki: 4.3 nM
HIV-1 protease [2]; DOSE 0.123 (unit not given)
  PROTEASE % INHIB.: 53.45%
HIV-1 protease [2]; DOSE 0.370 (unit not given)
  PROTEASE % INHIB.: 77.51%
HIV-1 protease [2]; DOSE 1.100 (unit not given)
  PROTEASE % INHIB.: 94.18%
HIV-1 protease [2]; DOSE 3.300 (unit not given)
  PROTEASE % INHIB.: 103.03%
HIV-1 protease [2]; DOSE 10.000 (unit not given)
  PROTEASE % INHIB.: 97.41%
HIV-1 protease [2]; DOSE 30.000 (unit not given)
  PROTEASE % INHIB.: 92.01%

## CCCC1(CCc2ccc(F)cc2)CC(O)=C(C(c2cccc(NS(=O)(=O)c3ccc(C#N)cc3)c2)C(C)(C)C)C(=O)O1 (stereo not shown) [Example 328, N-[3-{1-(4-Hydroxy-5,6-dihydro-2-oxo-6-(2-(4-fluorophenyl)ethyl)-6-propyl-2H-pyran-3-yl)-2,2-dimethylpropyl}phenyl]-4-cyanobenzenesulfonamide]
HIV-1 protease [1]; [4]
  Ki: 22 nM
HIV-1 protease [2]; DOSE 0.123 (unit not given)
  PROTEASE % INHIB.: 27.81%
HIV-1 protease [2]; DOSE 0.370 (unit not given)
  PROTEASE % INHIB.: 79.47%
HIV-1 protease [2]; DOSE 1.100 (unit not given)
  PROTEASE % INHIB.: 95.45%
HIV-1 protease [2]; DOSE 3.300 (unit not given)
  PROTEASE % INHIB.: 96.77%
HIV-1 protease [2]; DOSE 10.000 (unit not given)
  PROTEASE % INHIB.: 96.78%
HIV-1 protease [2]; DOSE 30.000 (unit not given)
  PROTEASE % INHIB.: 92.17%

## CCCC1(CCc2ccc(F)cc2)CC(O)=C(C(c2cccc(NS(=O)(=O)c3cccc4cccnc34)c2)C(C)(C)C)C(=O)O1 (stereo not shown) [Example 329, N-[3-{1-(4-Hydroxy-5,6-dihydro-2-oxo-6-(2-(4-fluorophenyl)ethyl)-6-propyl-2H-pyran-3-yl)-2,2-dimethylpropyl)phenyl]-8-quinolinesulfonamide]
HIV-1 protease [1]; [4]
  Ki: 12 nM
HIV-1 protease [2]; DOSE 0.123 (unit not given)
  PROTEASE % INHIB.: 46.4%
HIV-1 protease [2]; DOSE 0.370 (unit not given)
  PROTEASE % INHIB.: 88.19%
HIV-1 protease [2]; DOSE 1.100 (unit not given)
  PROTEASE % INHIB.: 96.63%
HIV-1 protease [2]; DOSE 3.300 (unit not given)
  PROTEASE % INHIB.: 100.32%
HIV-1 protease [2]; DOSE 10.000 (unit not given)
  PROTEASE % INHIB.: 97.07%
HIV-1 protease [2]; DOSE 30.000 (unit not given)
  PROTEASE % INHIB.: 96.35%

## CCC(C1=C(O)CC(CCc2ccc(F)cc2)(CCc2ccc(F)cc2)OC1=O)c1cccc(NS(=O)(=O)c2ccc(C(N)=O)cn2)c1 (stereo not shown) [Example 333, N-[3-{1-(4-Hydroxy-5,6-dihydro-2-oxo-6,6-bis(2-(4-fluorophenyl)ethyl)-2H-pyran-3-yl)propyl}phenyl]-5-carbamoylpyridine-2-sulfonamide]
HIV-1 protease [1]; [4]
  Ki: 7.7 nM
HIV-1 protease [2]; DOSE 0.123 (unit not given)
  PROTEASE % INHIB.: 66.73%
HIV-1 protease [2]; DOSE 0.370 (unit not given)
  PROTEASE % INHIB.: 85.07%
HIV-1 protease [2]; DOSE 1.100 (unit not given)
  PROTEASE % INHIB.: 85.12%
HIV-1 protease [2]; DOSE 3.300 (unit not given)
  PROTEASE % INHIB.: 93.69%
HIV-1 protease [2]; DOSE 10.000 (unit not given)
  PROTEASE % INHIB.: 89.38%
HIV-1 protease [2]; DOSE 30.000 (unit not given)
  PROTEASE % INHIB.: 77.91%

## Cn1cnc(S(=O)(=O)Nc2cccc(C(C3=C(O)CC(CCc4ccccc4)(CCc4ccccc4)OC3=O)C(C)(C)C)c2)c1 (stereo not shown) [Example 343, N-[3-{1-(4-Hydroxy-5,6-dihydro-2-oxo-6,6-bis(2-phenylethyl)-2H-pyran-3-yl)-2,2-dimethylpropyl}phenyl]-1-methyl-1H-imidazole-4-sulfonamide]
HIV-1 protease [1]; [4]
  Ki: 2.9 nM
HIV-1 protease [2]; DOSE 0.123 (unit not given)
  PROTEASE % INHIB.: 57.5%
HIV-1 protease [2]; DOSE 0.370 (unit not given)
  PROTEASE % INHIB.: 76.83%
HIV-1 protease [2]; DOSE 1.100 (unit not given)
  PROTEASE % INHIB.: 81.02%
HIV-1 protease [2]; DOSE 3.300 (unit not given)
  PROTEASE % INHIB.: 86.43%
HIV-1 protease [2]; DOSE 10.000 (unit not given)
  PROTEASE % INHIB.: 60.56%
HIV-1 protease [2]; DOSE 30.000 (unit not given)
  PROTEASE % INHIB.: 46%

## CC(C)(C)C(C1=C(O)CC(CCc2ccccc2)(CCc2ccccc2)OC1=O)c1cccc(NS(=O)(=O)c2ccc(C#N)cn2)c1 (stereo not shown) [Example 344, N-[3-{1-(4-Hydroxy-5,6-dihydro-2-oxo-6,6-bis(2-phenylethyl)-2H-pyran-3-yl)-2,2-dimethylpropyl}phenyl]-5-cyanopyridine-2-sulfonamide]
HIV-1 protease [1]; [4]
  Ki: 5.9 nM
HIV-1 protease [2]; DOSE 0.123 (unit not given)
  PROTEASE % INHIB.: 47.37%
HIV-1 protease [2]; DOSE 0.370 (unit not given)
  PROTEASE % INHIB.: 72.84%
HIV-1 protease [2]; DOSE 1.100 (unit not given)
  PROTEASE % INHIB.: 81.17%
HIV-1 protease [2]; DOSE 3.300 (unit not given)
  PROTEASE % INHIB.: 83.08%
HIV-1 protease [2]; DOSE 10.000 (unit not given)
  PROTEASE % INHIB.: 68.47%
HIV-1 protease [2]; DOSE 30.000 (unit not given)
  PROTEASE % INHIB.: 46.24%

## Nc1ccc(S(=O)(=O)Nc2cccc(CC3=C(O)CC(CCc4ccccc4)(CCc4ccccc4)OC3=O)c2)nc1 [Example 354, N-[3-{1-(4-Hydroxy-5,6-dihydro-2-oxo-6,6-bis(2-phenylethyl)-2H-pyran-3-yl)methyl}phenyl]-5-aminopyridine-2-sulfonamide]
HIV-1 protease [1]; [4]
  Ki: 665 nM
HIV-1 protease [2]; DOSE 0.123 (unit not given)
  PROTEASE % INHIB.: < 10%
HIV-1 protease [2]; DOSE 0.370 (unit not given)
  PROTEASE % INHIB.: 10.37%
HIV-1 protease [2]; DOSE 1.100 (unit not given)
  PROTEASE % INHIB.: 26.79%
HIV-1 protease [2]; DOSE 3.300 (unit not given)
  PROTEASE % INHIB.: 46.1%
HIV-1 protease [2]; DOSE 10.000 (unit not given)
  PROTEASE % INHIB.: 54.97%
HIV-1 protease [2]; DOSE 30.000 (unit not given)
  PROTEASE % INHIB.: 54.5%

## CCC(C1=C(O)C2CCCCCC2OC1=O)c1cccc(NS(=O)(=O)c2ccc(C#N)cn2)c1 (stereo not shown) [Example 372, 5-Cyano-N-[3-[1-(2,4a,5,6,7,8,9,9a-octahydro-4-hydroxy-2-oxocyclohepta[b]pyran-3-yl)propyl]phenyl]-2-pyridinesulfonamide]
HIV-1 protease [1]; [4]
  Ki: 4 nM
HIV-1 protease [2]; DOSE 0.123 (unit not given)
  PROTEASE % INHIB.: 43.52%
HIV-1 protease [2]; DOSE 0.370 (unit not given)
  PROTEASE % INHIB.: 86.68%
HIV-1 protease [2]; DOSE 1.100 (unit not given)
  PROTEASE % INHIB.: 101.52%
HIV-1 protease [2]; DOSE 3.300 (unit not given)
  PROTEASE % INHIB.: 99.56%
HIV-1 protease [2]; DOSE 10.000 (unit not given)
  PROTEASE % INHIB.: 97.81%
HIV-1 protease [2]; DOSE 30.000 (unit not given)
  PROTEASE % INHIB.: 106.18%

Reference: US6169181A, “Compounds useful to treat retroviral infections” (Pharmacia & Upjohn Company, priority 1998, dated 2001)
